# Assay results reported in BindingDB's records for doi:10.1021/jm9811054 (Merck, 2000).
# pIC50: −log10 of the molar value.
# Biological target: 5-HT1D receptor (Bos taurus)
# Experiment: Binding affinity towards 5-hydroxytryptamine 1D receptor in calf striatum using [3H]5-HT as radio-ligand.
row,Compound,pIC50
1,COc1ccc(NC(=O)N2CCN(CCCCc3c[nH]c4ccc(F)cc34)CC2)cc1N1CCN(C)CC1 [4-[4-(5-Fluoro-1H-indol-3-yl)-butyl]-piperazine-1-carboxylic acid [4-methoxy-3-(4-methyl-piperazin-1-yl)-phenyl]-amide],6.44
2,COc1ccc(NC(=O)NCCN2CCC(c3c[nH]c4cc(F)ccc34)CC2)cc1OCCN(C)C [1-[3-(2-Dimethylamino-ethoxy)-4-methoxy-phenyl]-3-{2-[4-(6-fluoro-1H-indol-3-yl)-piperidin-1-yl]-ethyl}-urea],6.36
3,"COc1ccc(NC(=O)N2CCc3[nH]c4ccc(F)cc4c3C2)cc1N1CCN(C)CC1 [8-Fluoro-1,3,4,5-tetrahydro-pyrido[4,3-b]indole-2-carboxylic acid [4-methoxy-3-(4-methyl-piperazin-1-yl)-phenyl]-amide]",6.18

# Further compounds by rising pIC50, results first:
row,pIC50,Compound
1,6.40,COc1ccc(NC(=O)N2CCC(c3c[nH]c4ccc(C#N)cc34)CC2)cc1N1CCN(C)CC1 [4-(5-Cyano-1H-indol-3-yl)-piperidine-1-carboxylic acid [4-methoxy-3-(4-methyl-piperazin-1-yl)-phenyl]-amide]
2,6.70,COc1ccc(NC(=O)N2CCC(c3c[nH]c4cc(F)ccc34)CC2)cc1N1CCN(C)CC1 [4-(6-Fluoro-1H-indol-3-yl)-piperidine-1-carboxylic acid [4-methoxy-3-(4-methyl-piperazin-1-yl)-phenyl]-amide]
3,6.78,COc1ccc(NC(=O)NCCc2c[nH]c3ccc(F)cc23)cc1N1CCN(C)CC1 [1-[2-(5-Fluoro-1H-indol-3-yl)-ethyl]-3-[4-methoxy-3-(4-methyl-piperazin-1-yl)-phenyl]-urea]
4,7.00,COc1ccc(NC(=O)N2CCC(c3c[nH]c4ccc(C(N)=O)cc34)CC2)cc1N1CCN(C)CC1 [3-{1-[4-Methoxy-3-(4-methyl-piperazin-1-yl)-phenylcarbamoyl]-piperidin-4-yl}-1H-indole-5-carboxylic acid amide]
